# Earlier results, collected in patent publication US8563051B2, “Herbal composition for weight management” (InQpharm Sdn Bhd, priority 2005, dated 2013).
# Like-named read-outs stand apart in the source and are kept apart here.
# Assays:
# [1] = doses in the range of 1 to 5 grams a day
# [2] = human clinical weight loss trial
# [3] = test system: Ehrlich ascites tumor cell; conditions: in vitro
# [4] = 8-week human clinical study, 26 subjects
# [5] = human clinical trial; blood levels not measured
# [6] = rodents
compound,measurement,setting,value
"O=C(O)CC(O)(C(=O)O)C(O)C(=O)O (single isomer, unassigned; (-)) [HCA, (−)hydroxycitric acid]",safety assessment,[1],no relevant safety issues
O=C([O-])CC(O)(C(=O)[O-])C(O)C(=O)[O-].[Ca+2].[K+] (stereo not drawn) [calcium and potassium hydroxycitrate],weight loss,[2],shown to be effective
"C[C@H]1[C@H](C)CC[C@]2(C(=O)O)CC[C@]3(C)C(=CC[C@@H]4[C@@]5(C)C[C@@H](O)[C@H](O)C(C)(C)[C@@H]5CC[C@]43C)[C@H]12 [Corosolic acid, 2-hydroxyursolic acid]",glucose transport activity,[3],stimulate significant glucose transport activity
same,glucose tolerance and blood sugar levels,[4],improved glucose tolerance and improved blood sugar levels
O=C([O-])C[C@@](O)(C(=O)[O-])[C@H](O)C(=O)[O-].O=C([O-])C[C@@](O)(C(=O)[O-])[C@H](O)C(=O)[O-].[Ca+2].[Ca+2].[Ca+2] [calcium salt of hydroxycitric acid],weight loss,[5],ineffective for weight loss
sodium salt of hydroxycitric acid,food intake and weight,[6],reduce food intake and cause weight loss
